Laboratory results as given in PubChem BioAssay (NCI).
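1) Cells in 96-well plates. 2) Compound, 48 h, 5 concentrations. 3) Linear interpolation between surrounding doses. 4) Unreached endpoint = highest concentration. GI50 marks 50% less growth. TGI: total growth inhibition.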

Experiments:
Experiment in all cases: DTP human tumour cell line panel, 48 h
MALME-3M melanoma = test system: MALME-3M melanoma
LOX IMVI melanoma = test system: LOX IMVI melanoma
NCI-H460 lung = test system: NCI-H460 lung
RPMI-8226 leukemia = test system: RPMI-8226 leukemia
MDA-MB-435 = test system: MDA-MB-435
NCI/ADR-RES ovarian = test system: NCI/ADR-RES ovarian
NCI-H23 lung = test system: NCI-H23 lung
HT29 colon = test system: HT29 colon
EKVX NSCLC = test system: EKVX NSCLC
U251 CNS = test system: U251 CNS
RXF 393 renal = test system: RXF 393 renal
SR leukemia = test system: SR leukemia
CAKI-1 renal = test system: CAKI-1 renal
SK-MEL-2 melanoma = test system: SK-MEL-2 melanoma
HCT-15 colon = test system: HCT-15 colon
M14 melanoma = test system: M14 melanoma
SW-620 colon = test system: SW-620 colon
KM12 colon = test system: KM12 colon
HCT-116 colon = test system: HCT-116 colon
HL-60(TB) leukemia = test system: HL-60(TB) leukemia
A549 NSCLC = test system: A549 NSCLC
OVCAR-5 ovarian = test system: OVCAR-5 ovarian
MOLT-4 leukemia = test system: MOLT-4 leukemia
HOP-62 NSCLC = test system: HOP-62 NSCLC
BT-549 breast = test system: BT-549 breast
OVCAR-3 ovarian = test system: OVCAR-3 ovarian
MDA-MB-231 breast = test system: MDA-MB-231 breast
786-0 renal = test system: 786-0 renal
SF-268 CNS = test system: SF-268 CNS
SF-539 CNS = test system: SF-539 CNS
SK-OV-3 ovarian = test system: SK-OV-3 ovarian
UO-31 renal = test system: UO-31 renal
SF-295 CNS = test system: SF-295 CNS
OVCAR-8 ovarian = test system: OVCAR-8 ovarian
PC-3 prostate = test system: PC-3 prostate
HS 578T breast = test system: HS 578T breast
CCRF-CEM leukemia = test system: CCRF-CEM leukemia
SK-MEL-28 melanoma = test system: SK-MEL-28 melanoma
MCF7 breast = test system: MCF7 breast
NCI-H226 lung = test system: NCI-H226 lung
SK-MEL-5 melanoma = test system: SK-MEL-5 melanoma
HCC-2998 colon = test system: HCC-2998 colon
SN12C renal = test system: SN12C renal
ACHN renal = test system: ACHN renal
UACC-257 melanoma = test system: UACC-257 melanoma
IGROV1 ovarian = test system: IGROV1 ovarian
K-562 leukemia = test system: K-562 leukemia
SNB-75 CNS = test system: SNB-75 CNS
NCI-H522 lung = test system: NCI-H522 lung
COLO 205 colon = test system: COLO 205 colon
OVCAR-4 ovarian = test system: OVCAR-4 ovarian
A498 renal = test system: A498 renal
TK-10 renal = test system: TK-10 renal
T-47D breast = test system: T-47D breast
HOP-92 NSCLC = test system: HOP-92 NSCLC
DU-145 prostate = test system: DU-145 prostate
UACC-62 melanoma = test system: UACC-62 melanoma
SNB-19 CNS = test system: SNB-19 CNS

Brc1ccc2[nH]cc(-c3nn4cc(-c5nccs5)nc4s3)c2c1 was tested, and the GI50 (MALME-3M melanoma) was 3.71 µM, the TGI (MALME-3M melanoma) was 12.1 µM and the GI50 (LOX IMVI melanoma) was 2.41 µM. The TGI (LOX IMVI melanoma) was 10.3 µM, the GI50 (NCI-H460 lung) was 2.51 µM and the TGI (NCI-H460 lung) was 7.36 µM. For the same compound, the GI50 (RPMI-8226 leukemia) was 2.25 µM, the TGI (RPMI-8226 leukemia) was 9.84 µM and the GI50 (MDA-MB-435) was 4.4 µM. It also gave a TGI (MDA-MB-435) of 20.1 µM, a GI50 (NCI/ADR-RES ovarian) of 2.28 µM and a TGI (NCI/ADR-RES ovarian) of 7.1 µM. The GI50 (NCI-H23 lung) was 2.49 µM, the TGI (NCI-H23 lung) was 10.2 µM and the GI50 (HT29 colon) was 7.9 µM. For the same compound, the TGI (HT29 colon) was > 69.1 µM, the GI50 (EKVX NSCLC) was 4.45 µM and the TGI (EKVX NSCLC) was > 56.7 µM. For the same compound, the GI50 (U251 CNS) was 8.49 µM, the TGI (U251 CNS) was 21.3 µM and the GI50 (RXF 393 renal) was 2.32 µM. The TGI (RXF 393 renal) was 5.01 µM, the GI50 (SR leukemia) was 5.21 µM and the TGI (SR leukemia) was > 50.7 µM. The GI50 (CAKI-1 renal) was 2.46 µM, the TGI (CAKI-1 renal) was 7.73 µM and the GI50 (SK-MEL-2 melanoma) was 28.6 µM. The TGI (SK-MEL-2 melanoma) was > 100 µM, the GI50 (HCT-15 colon) was 3.25 µM and the TGI (HCT-15 colon) was > 34.7 µM. For the same compound, the GI50 (M14 melanoma) was 3.58 µM, the TGI (M14 melanoma) was 16.1 µM and the GI50 (SW-620 colon) was 6.68 µM. The TGI (SW-620 colon) was > 58.1 µM, the GI50 (KM12 colon) was 7.16 µM and the TGI (KM12 colon) was > 100 µM. For the same compound, the GI50 (HCT-116 colon) was 1.82 µM, the TGI (HCT-116 colon) was 3.44 µM and the GI50 (HL-60(TB) leukemia) was 22.8 µM. For the same compound, the TGI (HL-60(TB) leukemia) was > 100 µM, the GI50 (A549 NSCLC) was 2.6 µM and the TGI (A549 NSCLC) was 7.52 µM. It also gave a GI50 (OVCAR-5 ovarian) of 5.88 µM, a TGI (OVCAR-5 ovarian) of 22.1 µM and a GI50 (MOLT-4 leukemia) of 2.58 µM. For the same compound, the TGI (MOLT-4 leukemia) was > 100 µM, the GI50 (HOP-62 NSCLC) was 2.46 µM and the TGI (HOP-62 NSCLC) was 11.2 µM. The GI50 (BT-549 breast) was 3.22 µM, the TGI (BT-549 breast) was 11.8 µM and the GI50 (OVCAR-3 ovarian) was 2.58 µM. For the same compound, the TGI (OVCAR-3 ovarian) was 7.62 µM, the GI50 (MDA-MB-231 breast) was 1.82 µM and the TGI (MDA-MB-231 breast) was 5.04 µM. For the same compound, the GI50 (786-0 renal) was 2 µM, the TGI (786-0 renal) was 4.11 µM and the GI50 (SF-268 CNS) was 7.98 µM. The TGI (SF-268 CNS) was 68.9 µM, the GI50 (SF-539 CNS) was 3.14 µM and the TGI (SF-539 CNS) was 12.2 µM. The GI50 (SK-OV-3 ovarian) was 10.3 µM, the TGI (SK-OV-3 ovarian) was 26.3 µM and the GI50 (UO-31 renal) was 1.73 µM. It also gave a TGI (UO-31 renal) of 6.57 µM, a GI50 (SF-295 CNS) of 3 µM and a TGI (SF-295 CNS) of 9.89 µM. The GI50 (OVCAR-8 ovarian) was 2.53 µM, the TGI (OVCAR-8 ovarian) was 6.77 µM and the GI50 (PC-3 prostate) was 2.36 µM. The TGI (PC-3 prostate) was 10.8 µM, the GI50 (HS 578T breast) was 4.88 µM and the TGI (HS 578T breast) was > 64 µM. For the same compound, the GI50 (CCRF-CEM leukemia) was 3.06 µM, the TGI (CCRF-CEM leukemia) was > 40 µM and the GI50 (SK-MEL-28 melanoma) was 9.15 µM. For the same compound, the TGI (SK-MEL-28 melanoma) was > 59.3 µM, the GI50 (MCF7 breast) was 3.23 µM and the TGI (MCF7 breast) was > 35.5 µM. For the same compound, the GI50 (NCI-H226 lung) was 2.28 µM, the TGI (NCI-H226 lung) was 8.95 µM and the GI50 (SK-MEL-5 melanoma) was 3.86 µM. For the same compound, the TGI (SK-MEL-5 melanoma) was 18 µM, the GI50 (HCC-2998 colon) was 2.65 µM and the TGI (HCC-2998 colon) was > 22.3 µM. For the same compound, the GI50 (SN12C renal) was 8.1 µM, the TGI (SN12C renal) was > 50.9 µM and the GI50 (ACHN renal) was 2.39 µM. The TGI (ACHN renal) was 7.4 µM, the GI50 (UACC-257 melanoma) was 10.5 µM and the TGI (UACC-257 melanoma) was > 62.5 µM. The GI50 (IGROV1 ovarian) was 2.58 µM, the TGI (IGROV1 ovarian) was 14.6 µM and the GI50 (K-562 leukemia) was 2.84 µM. The TGI (K-562 leukemia) was 11.9 µM, the GI50 (SNB-75 CNS) was 1.79 µM and the TGI (SNB-75 CNS) was 7.94 µM. For the same compound, the GI50 (NCI-H522 lung) was 9.76 µM, the TGI (NCI-H522 lung) was 36.9 µM and the GI50 (COLO 205 colon) was 5.31 µM. The TGI (COLO 205 colon) was 21.9 µM, the GI50 (OVCAR-4 ovarian) was 5.04 µM and the TGI (OVCAR-4 ovarian) was 14.9 µM. The GI50 (A498 renal) was 16 µM, the TGI (A498 renal) was 32 µM and the GI50 (TK-10 renal) was 9.55 µM. For the same compound, the TGI (TK-10 renal) was 24.2 µM, the GI50 (T-47D breast) was 3.19 µM and the TGI (T-47D breast) was > 75.7 µM. For the same compound, the GI50 (HOP-92 NSCLC) was 1.77 µM, the TGI (HOP-92 NSCLC) was 4.56 µM and the GI50 (DU-145 prostate) was 5.39 µM. For the same compound, the TGI (DU-145 prostate) was 17.7 µM, the GI50 (UACC-62 melanoma) was > 57.7 µM and the TGI (UACC-62 melanoma) was > 100 µM. It also gave a GI50 (SNB-19 CNS) of 6.62 µM and a TGI (SNB-19 CNS) of 22.6 µM.
